# From patent publication US20080027125A1 (priority 2006, published 2008)
# Assays:
# [1] = Storing at room temperature under 0-60% RH for 10 days, analysed by XRD and KF; type: physicochemical; details: for form found by XRD at the end of the storage time / water content after storage: room temperature
# Method: Copper radiation of 1.5418 Å was used. The sample holder was a round standard aluminum sample holder with rough zero background. The scanning parameters were range: 2-40 degrees two-theta; scan mode: continuous scan; step size: 0.05 deg.; and a rate of 5 deg/min. The water content of the samples was determined by the method known as Karl Fisher (KF). […] Before and after the storage time the sample was analyzed by XRD. […] Before and after the storage time the sample was analyzed by XRD and KF.
# [2] = Storing at room temperature under 100% RH for 10 days, analysed by XRD; type: physicochemical
# Method: In the following examples, the forms of Fluvastatin Sodium were identified using a Scintag X-ray powder diffractometer model X'TRA with a solid state detector. Copper radiation of 1.5418 Å was used. The sample holder was a round standard aluminum sample holder with rough zero background. The scanning parameters were range: 2-40 degrees two-theta; scan mode: continuous scan; step size: 0.05 deg.; and a rate of 5 deg/min. The water content of the samples was determined by the method known as Karl Fisher (KF). […] The samples stored under 100% RH had about 25% water content.
# [3] = Heating of Fluvastatin Sodium Form CVI in oven, analysed by XRD and KF; type: physicochemical
# Method: In the following examples, the forms of Fluvastatin Sodium were identified using a Scintag X-ray powder diffractometer model X'TRA with a solid state detector. Copper radiation of 1.5418 Å was used. The sample holder was a round standard aluminum sample holder with rough zero background. The scanning parameters were range: 2-40 degrees two-theta; scan mode: continuous scan; step size: 0.05 deg.; and a rate of 5 deg/min. The water content of the samples was determined by the method known as Karl Fisher (KF).
# [4] = Form A compared with the amorphous form; Form B as stated; cited from earlier work
# [5] = 0% RH, listed as fluvastatin Sodium Form CVI
smiles,measurement,setting,value
"CC(C)n1c(/C=C/C(O)C[C@@H](O)CC(=O)O)c(-c2ccc(F)cc2)c2ccccc21 (stereo partly drawn) [amorphous fluvastatin sodium, fluvastatin sodium]",form found by XRD at the end of the storage time,[1]; 0% RH,amorphous Fluvastatin Sodium
same,water content after storage,[1]; 0% RH,4%
same,form found by XRD at the end of the storage time,[1]; 60% RH,amorphous Fluvastatin Sodium
same,water content after storage,[2],about 25%
same,form found by XRD after storage,[2]; room temperature,Fluvastatin Na Form LXVI
"CC(C)n1c(/C=C/C(O)C[C@@H](O)CC(=O)O)c(-c2ccc(F)cc2)c2ccccc21 (stereo partly drawn) [Form CVI, fluvastatin sodium]",form found by XRD at the end of the storage time,[1]; [5],Fluvastatin Sodium Form CVI
same,water content after storage,[1]; [5],3%
same,form found by XRD at the end of the storage time,"[1]; 60% RH, listed as fluvastatin Sodium Form CVI",Fluvastatin Sodium Form CVI
same,conversion into fluvastatin sodium Form LXVI,[1]; relative humidity about 0% to about 60%,≤ 10%
same,water content (KF) after heating,"[3]; 80 C, 1 hour",about 2%
same,water content (KF) after heating,"[3]; 80 C, 1 hour, listed as Fluvastatin Na Form CVI",2%
same,conversion into fluvastatin sodium Form LXVI,[3]; heating to about 80° C. for about 1 hour,≤ 10%
same,form found by XRD after heating,"[3]; oven, 80 C, 1 hour",Fluvastatin Sodium Form CVI
"CC(C)n1c(/C=C/C(O)C[C@@H](O)CC(=O)O)c(-c2ccc(F)cc2)c2ccccc21 (stereo partly drawn) [form B, fluvastatin sodium]",hygroscopicity,[4],low hygroscopicity
"CC(C)n1c(/C=C/C(O)C[C@@H](O)CC(=O)O)c(-c2ccc(F)cc2)c2ccccc21 (stereo partly drawn) [Form A, fluvastatin sodium]",hygroscopicity,[4],less hygroscopic
